Laboratory results published in publication PMC7150891, “Mertansine Inhibits mRNA Expression and Enzyme Activities of Cytochrome P450s and Uridine 5′-Diphospho-Glucuronosyltransferases in Human Hepatocytes and Liver Microsomes” (Pharmaceutics, 2020).
Entries after “also recorded” stand apart in the source; their conditions may differ.

Molecular target: T1, UGT1A4 (Homo sapiens, UniProt P22310)
T1 construct: ultrapooled human liver microsomes (0.2 mg/mL); from tissue; host or cells: human liver microsomes (ultrapooled)
T1 sequence (P22310 29-534): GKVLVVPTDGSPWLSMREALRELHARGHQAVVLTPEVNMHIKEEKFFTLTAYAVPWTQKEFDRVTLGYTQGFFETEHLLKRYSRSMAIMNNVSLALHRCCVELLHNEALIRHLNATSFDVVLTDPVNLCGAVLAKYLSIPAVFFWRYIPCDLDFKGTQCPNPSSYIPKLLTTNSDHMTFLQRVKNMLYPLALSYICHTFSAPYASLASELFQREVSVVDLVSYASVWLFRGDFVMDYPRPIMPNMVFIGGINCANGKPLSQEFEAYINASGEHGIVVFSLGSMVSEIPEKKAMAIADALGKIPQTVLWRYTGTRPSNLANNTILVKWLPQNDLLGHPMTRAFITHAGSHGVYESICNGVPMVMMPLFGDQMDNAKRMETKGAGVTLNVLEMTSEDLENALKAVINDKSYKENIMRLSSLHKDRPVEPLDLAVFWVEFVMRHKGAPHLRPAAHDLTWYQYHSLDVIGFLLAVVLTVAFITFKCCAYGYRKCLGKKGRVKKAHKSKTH
Assay: Inhibition of UGT1A4-catalyzed trifluoperazine N-β-D-glucuronidation in ultrapooled human liver microsomes
Assay type: in vitro ADME
Experimental: The inhibitory potential of mertansine on UGT1A1, UGT1A3, UGT1A4, UGT1A6, UGT1A9, and UGT2B7 activities was evaluated using liquid chromatography–tandem mass spectrometry (LC-MS/MS) with a cocktail of UGT substrates and ultrapooled human liver microsomes. Each incubation mixture was prepared to a final volume of 100 μL as follows: ultrapooled human liver microsomes (0.2 mg/mL), 5 mM UDPGA, 10 mM magnesium chloride, alamethicin (25 μg/mL), 50 mM Tris buffer (pH 7.4), various concentrations of mertansine in methanol (final concentrations of 0.01–50 μM), and the cocktail sets of UGT enzyme-specific substrates. Two cocktail sets were used: set A contained 0.5 μM SN-38 for UGT1A1, 2 μM chenodeoxycholic acid for UGT1A3, and 0.5 μM trifluoperazine for UGT1A4; and set B contained 1 μM N-acetylserotonin for UGT1A6, 0.2 μM mycophenolic acid for UGT1A9, and 1 μM naloxone for UGT2B7. The reactions were initiated by adding UDPGA and incubated in a shaking water bath for 60 min at 37 °C. […] Next, 50 μL of each supernatant of sets A and B was mixed, and aliquots (5 μL) were analyzed using LC-MS/MS. […]
The LC-MS/MS system was comprised of an Agilent 6495 triple quadrupole mass spectrometer coupled with an Agilent 1290 Infinity system (Agilent Technologies, Wilmington, DE, USA). […] The electrospray ionization (ESI) source settings in both positive and negative ion modes were as follows: gas temperature, 200 °C; gas flow, 14 L/min; nebulizer, 40 psi; sheath gas temperature, 380 °C; sheath gas flow, 11 L/min; capillary voltage, 4500 V; and nozzle voltage, 500 V. Each metabolite was quantified via selected reaction monitoring in the negative ion mode (chenodeoxycholic acid 24-acyl-β-glucuronide, m/z 567.1 to 391.2; mycophenolic acid β-D-glucuronide, m/z 495.0 to 319.0; propofol glucuronide (IS), m/z 353.0 to 177.0) and in the positive ion mode (SN-38 glucuronide, m/z 568.9 to 392.9; trifluoperazine N-β-D-glucuronide, m/z 583.9 to 407.9; N-acetylserotonin β-D-glucuronide, m/z 394.0 to 219.0; naloxone 3-β-D-glucuronide, m/z 503.9 to 309.9; meloxicam (IS), m/z 351.9 to 115.0). […]

In the case of `COc1cc2cc(c1Cl)N(C)C(=O)CC(OC(=O)C(C)N(C)C(=O)CCS)C1(C)OC1C(C)C1CC(O)(NC(=O)O1)C(OC)C=CC=C(C)C2` (stereo not drawn) [mertansine, Mertansine], the “Inhibition Mode, UGT1A4” value (human liver microsomes, Dixon plot) is reported as “competitively inhibited; also recorded: competitive inhibitor”, the Ki (human liver microsomes, trifluoperazine 0.2–2 µM) is reported as 21.2 µM and the IC50 (ultrapooled human liver microsomes, 0.5 µM trifluoperazine (cocktail)) is reported as 23.3 µM.
